Experimental findings from ChEMBL document CHEMBL4004848, “Dregamine and tabernaemontanine derivatives as ABCB1 modulators on resistant cancer cells” (Eur J Med Chem, 2017) are described below.

Series [1] addresses T1, ATP-dependent translocase ABCB1 (Homo sapiens, UniProt P08183). The experiment in a line: Inhibition of human ABCB1 expressed in mouse L5178Y cells assessed as fluorescence activity ratio at 20 uM pretreated for 10 mins followed by rhodamine-123 addition after 20 mins by flow cytometry. The series is classed as cell-based. In general terms: In flow cytometry, cells or beads pass a laser one at a time.

Series [2] is described as follows: Selectivity index, ratio of IC50 for mouse NIH/3T3 cells to IC50 for mouse L5178Y cells. In kind it is functional.
Series [3] addresses T1, ATP-dependent translocase ABCB1. The experiment in a line: Inhibition of human ABCB1 expressed in mouse L5178Y cells assessed as fluorescence activity ratio at 2 uM pretreated for 10 mins followed by rhodamine-123 addition after 20 mins by flow cytometry. In kind it is cell-based.
The next series concerns L5178Y. The experiment in a line: Cytotoxicity against mouse L5178Y cells after 24 hrs by MTT assay. The series is classed as functional, cell-based.
In series [4] the target is T1, ATP-dependent translocase ABCB1. Put plainly: Inhibition of human ABCB1 expressed in mouse L5178Y cells assessed as increase in rhodamine-123 accumulation by measuring forward scatter count of cells at 2 uM pretreated for 10 mins followed by rhodamine-123 addition after 20 mins by flow cytometry (reference value: 2206). In kind it is cell-based.
The target is the same in series [5]. The experiment in a line: Inhibition of human ABCB1 expressed in mouse L5178Y cells assessed as increase in rhodamine-123 accumulation by measuring side scatter count of cells at 2 uM pretreated for 10 mins followed by rhodamine-123 addition after 20 mins by flow cytometry (reference value: 903). In kind it is cell-based.
Series [6] has the same target. The experiment in a line: Inhibition of human ABCB1 expressed in mouse L5178Y cells pretreated for 10 mins followed by rhodamine-123 addition after 20 mins by flow cytometry. In kind it is cell-based.
The subject of the next series is NIH3T3. The experiment in a line: Cytotoxicity against mouse NIH/3T3 cells after 24 hrs by MTT assay. In kind it is cell-based. Conditions: NIH3T3, 24 h. In general terms: Tetrazolium dyes change colour on reduction, which living cells bring about.
The target of series [7] is T1, ATP-dependent translocase ABCB1. Put plainly: Inhibition of human ABCB1 expressed in mouse L5178Y cells assessed as increase in rhodamine-123 accumulation by measuring side scatter count of cells at 20 uM pretreated for 10 mins followed by rhodamine-123 addition after 20 mins by flow cytometry (reference value: 903). In kind it is cell-based.
Series [8] in a line: Selectivity index, ratio of IC50 for mouse L5178Y cells to IC50 for human ABCB1 expressed in L5178Y cells.
For series [9], the target named is T1, ATP-dependent translocase ABCB1. Put plainly: Inhibition of human ABCB1 expressed in mouse L5178Y cells assessed as increase in rhodamine-123 accumulation by measuring forward scatter count of cells at 20 uM pretreated for 10 mins followed by rhodamine-123 addition after 20 mins by flow cytometry (reference value: 2206). In kind it is cell-based.
Series [10] shares this target. Put plainly: Inhibition of human ABCB1 expressed in mouse L5178Y cells assessed as potentiation of doxorubicin-induced cytotoxicity by measuring combination index at 2:25 doxorubicin to compound ratio after 48 hrs by MTT assay. The series is classed as cell-based.

T1 sequence (P08183 whole entry): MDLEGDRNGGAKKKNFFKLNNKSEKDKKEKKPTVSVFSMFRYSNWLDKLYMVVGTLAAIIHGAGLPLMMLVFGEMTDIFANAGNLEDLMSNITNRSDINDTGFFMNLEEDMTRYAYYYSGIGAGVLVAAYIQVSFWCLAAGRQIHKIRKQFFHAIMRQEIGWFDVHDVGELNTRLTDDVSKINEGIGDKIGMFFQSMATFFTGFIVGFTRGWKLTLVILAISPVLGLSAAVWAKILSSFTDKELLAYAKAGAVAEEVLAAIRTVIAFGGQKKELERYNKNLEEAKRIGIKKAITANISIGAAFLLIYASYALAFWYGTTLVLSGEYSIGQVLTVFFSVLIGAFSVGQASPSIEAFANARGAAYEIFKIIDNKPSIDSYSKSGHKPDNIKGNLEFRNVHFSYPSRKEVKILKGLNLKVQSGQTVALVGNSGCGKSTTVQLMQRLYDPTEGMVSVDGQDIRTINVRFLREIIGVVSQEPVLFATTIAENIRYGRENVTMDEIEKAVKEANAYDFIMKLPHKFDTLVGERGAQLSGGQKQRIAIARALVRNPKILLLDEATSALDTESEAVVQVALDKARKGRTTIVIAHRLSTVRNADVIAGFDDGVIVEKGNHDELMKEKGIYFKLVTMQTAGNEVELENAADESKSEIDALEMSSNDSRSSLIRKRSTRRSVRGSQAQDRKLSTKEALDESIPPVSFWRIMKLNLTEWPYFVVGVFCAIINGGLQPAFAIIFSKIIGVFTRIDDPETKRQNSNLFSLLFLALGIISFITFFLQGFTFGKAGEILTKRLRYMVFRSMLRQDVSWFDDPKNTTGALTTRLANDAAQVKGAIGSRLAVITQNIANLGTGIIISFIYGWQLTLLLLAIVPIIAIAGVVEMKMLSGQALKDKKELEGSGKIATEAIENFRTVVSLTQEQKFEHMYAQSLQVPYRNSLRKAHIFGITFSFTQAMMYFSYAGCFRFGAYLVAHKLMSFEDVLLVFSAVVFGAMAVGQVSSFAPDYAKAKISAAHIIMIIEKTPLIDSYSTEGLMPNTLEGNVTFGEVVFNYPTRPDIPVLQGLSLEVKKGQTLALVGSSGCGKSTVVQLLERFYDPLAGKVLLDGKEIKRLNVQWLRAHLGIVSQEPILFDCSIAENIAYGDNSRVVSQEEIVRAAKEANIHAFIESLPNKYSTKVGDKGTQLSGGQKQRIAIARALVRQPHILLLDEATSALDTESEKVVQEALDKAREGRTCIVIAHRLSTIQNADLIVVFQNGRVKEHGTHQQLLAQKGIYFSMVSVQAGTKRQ

A word on the IC50: it is the concentration needed to halve the response being measured. The low end stands for inhibition by little substance, the high end for a need for much substance. Take `CC[C@H]1CN(C)[C@H]2Cc3c([nH]c4ccccc34)/C(=N/O)C[C@H]1[C@@H]2C(=O)OC`: the Ratio is 3.87 in [1] and 0.85 in series [3]. In addition, the “Ratio IC50” value in series [2] is reported as 2.75; in series [8], 0.77. Besides, the IC50 was 13 µM with L5178Y and 35.8 µM in the series on NIH3T3. Further, the Activity in series [4] came out at 2156; in series [5] it was 958; in series [7], 912; in series [9], 2182. Moreover, in series [6], the “inhibition (INH)” value is “Dose-dependent effect”.
As for `CC[C@@H]1CN(C)[C@H]2Cc3c([nH]c4ccccc34)/C(=N/Nc3ccc(Br)cn3)C[C@H]1[C@@H]2C(=O)OC`, the Ratio is recorded as 70.82 in series [1] and 84.19 in [3]. In addition, the entries for the “Ratio IC50” value in [2] and in [8] were 2.85 and 0.78, respectively. Besides, the IC50 in the series with L5178Y is 29.2 µM; with NIH3T3, 83.2 µM. In addition, the Activity in series [4] is 2294; in series [5] it was 804; in series [7] it was 765; in series [9] it was 2225. The CI in series [10] was 0.19.
Consider `CC[C@@H]1CN(C)[C@H]2Cc3c([nH]c4ccccc34)C(=O)C[C@H]1[C@@H]2C(=O)OC`, for which the values for the Ratio in series [1] and in series [3] were 1.38 and 0.77, respectively. For the same molecule, the IC50 in the series on L5178Y was 56.8 µM; with NIH3T3, above 100 µM. Also, the Activity amounted to 2182 in series [4], 1146 in series [5], 1033 in series [7] and 2180 in [9]. The “inhibition (INH)” value in [6] is “Dose-dependent effect”.
`CC[C@H]1CN(C)[C@H]2Cc3c(n(C(=O)c4cccc(C)c4)c4ccccc34)C(=O)C[C@H]1[C@@H]2C(=O)OC`: the Ratio was determined as 12.1 in [1] and 0.95 in series [3]. The IC50 in the series with L5178Y and in the series on NIH3T3 was above 100 µM in each case. Besides, the Activity turned out to be 2436 in series [4], 1197 in [5], 1204 in series [7] and 2449 in [9]. Besides, the “inhibition (INH)” value in series [6] is reported as “Dose-dependent effect”.
Take `CC[C@H]1CN(C)[C@H]2Cc3c(n(CCN(CC)CC)c4ccccc34)C(=O)C[C@H]1[C@@H]2C(=O)OC`: the Ratio in [1] is on record as 52.93; in [3] it was 2.56. Moreover, the IC50 was 67.1 µM in the series on L5178Y and above 100 µM in the series on NIH3T3. In addition, the Activity in [4] worked out at 2415; in series [5], 1214; in series [7], 1192; in [9], 2440. Besides, the “inhibition (INH)” value in [6] is on record as “Dose-dependent effect”.
With `CC[C@H]1CN(C)[C@H]2Cc3c([nH]c4ccccc34)/C(=N/N)C[C@H]1[C@@H]2C(=O)OC`, the Ratio in [1] is listed as 46.47; in [3], 1.93. In addition, the IC50 in the series on L5178Y is 69.8 µM; in the series on NIH3T3 it was above 100 µM. Besides, the Activity in series [4] turned out to be 2184; in series [5], 1025; in [7], 1037; in series [9] it was 2162. Moreover, the “inhibition (INH)” value in [6] is listed as “Dose-dependent effect”. Also, in [8], the “Ratio IC50” value is listed as 0.95.
On to `CC[C@H]1CN(C)[C@H]2Cc3c([nH]c4ccccc34)[C@@H](O)C[C@H]1[C@@H]2C(=O)OC`, for which the Ratio in [1] came out at 5.18; in series [3], 1.03. Further, the IC50 in the series with L5178Y and in the series on NIH3T3 was above 100 µM each time. In addition, the Activity in series [4] was 2212; in series [5], 809; in series [7], 797; in series [9], 2199. Moreover, the “inhibition (INH)” value in [6] was “Dose-dependent effect”.
Take `CC[C@H]1CN(C)[C@H]2Cc3c([nH]c4ccccc34)/C(=N/NC(N)=O)C[C@H]1[C@@H]2C(=O)OC`: the Ratio in [1] is on record as 2.24; in series [3], 1.16. Also, the IC50 with L5178Y and with NIH3T3 was above 100 µM in each case. The Activity is given as 2312 in series [4], 778 in [5], 756 in [7] and 2380 in [9]. Moreover, the “inhibition (INH)” value in series [6] was “Dose-dependent effect”.
`CC[C@@H]1CN(C)[C@H]2Cc3c([nH]c4ccccc34)/C(=N/NC(N)=O)C[C@H]1[C@@H]2C(=O)OC`: the figures for the Ratio in [1] and in series [3] were 2.12 and 1.04, respectively. For the same molecule, the IC50 in the series with L5178Y and in the series with NIH3T3 was above 100 µM each time. The Activity in [4] stood at 2410; in series [5] it was 793; in series [7] it was 770; in series [9], 2389. Also, the “inhibition (INH)” value in series [6] is reported as “Dose-dependent effect”.
Regarding `CC[C@@H]1CN(C)[C@H]2Cc3c([nH]c4ccccc34)/C(=N/O)C[C@H]1[C@@H]2C(=O)OC`, the Ratio in series [1] is given as 7.31; in [3], 1.26. Moreover, the IC50 in the series with L5178Y was 60.1 µM; in the series on NIH3T3, above 100 µM. Further, the Activity in [4] stood at 2237; in series [5], 789; in series [7] it was 781; in series [9] it was 2304. Further, the “inhibition (INH)” value in series [6] was “Dose-dependent effect”. Moreover, the “Ratio IC50” value in series [8] was determined as 0.7. Moreover, the CI in series [10] is 0.36.
On to `CC[C@H]1CN(C)[C@H]2Cc3c([nH]c4ccccc34)/C(=N/Nc3ccc(Br)cn3)C[C@H]1[C@@H]2C(=O)OC`, for which the Ratio in series [1] is listed as 56.22; in series [3] it was 57.99. The “Ratio IC50” value in series [2] is 2.43; in [8], 0.89. The IC50 in the series with L5178Y was found to be 35.6 µM; in the series on NIH3T3, 86.5 µM. Besides, the Activity in [4] is on record as 2152; in series [5], 1049; in series [7] it was 992; in [9], 1947. Further, in [10], the CI turned out to be 0.28.
On to `C/C=C/C(=O)O[C@H]1C[C@@H]2[C@@H](CC)CN(C)[C@@H](Cc3c1[nH]c1ccccc31)[C@H]2C(=O)OC`, for which the Ratio in [1] was found to be 18.09; in series [3], 2.42. For the same molecule, the IC50 in the series with L5178Y was 90.3 µM; in the series on NIH3T3, above 100 µM. Also, the Activity was determined as 2440 in series [4], 1226 in series [5], 1213 in series [7] and 2447 in [9]. Also, the “inhibition (INH)” value in [6] is recorded as “Dose-dependent effect”.
Regarding `COc1ccc(CCN(C)CCCC(C#N)(c2ccc(OC)c(OC)c2)C(C)C)cc1OC` (stereo not drawn), the Activity in series [7] was determined as 1078; in [9], 2611.
For the molecule `CC[C@H]1CN(C)[C@H]2Cc3c([nH]c4ccccc34)C(=O)C[C@H]1[C@@H]2C(=O)OC`, the Ratio in series [1] was found to be 15.35; in series [3] it was 1.79. In addition, the IC50 in the series with L5178Y was 82.4 µM; in the series on NIH3T3, above 100 µM. Besides, the Activity in series [4] is 2353; in series [5] it was 1081; in [7], 1098; in series [9], 2240. For the same molecule, in [6], the “inhibition (INH)” value is listed as “Dose-dependent effect”.
Take `CC[C@@H]1CN(C)[C@H]2Cc3c([nH]c4ccccc34)[C@@H](OC(=O)C34CC5CC(CC(C5)C3)C4)C[C@H]1[C@@H]2C(=O)OC`: the Ratio in series [1] is 8.61; in [3], 1.08. Besides, the IC50 in the series with L5178Y and in the series on NIH3T3 was above 100 µM in each case. The Activity in series [4] was determined as 2450; in series [5], 1209; in series [7] it was 1203; in [9], 2442. For the same molecule, the “inhibition (INH)” value in series [6] is listed as “Dose-dependent effect”.
With `CC[C@@H]1CN(C)[C@H]2Cc3c([nH]c4ccccc34)/C(=N/N)C[C@H]1[C@@H]2C(=O)OC`, the Ratio in [1] came out at 18.46; in [3], 1.32. Also, the “Ratio IC50” value amounted to 1.36 in series [2] and 0.96 in series [8]. Further, the values for the IC50 in the series on L5178Y and with NIH3T3 were 46.6 µM and 95 µM, respectively. Further, the Activity in [4] worked out at 2191; in series [5], 927; in [7], 918; in [9], 2172. Besides, the “inhibition (INH)” value in series [6] is recorded as “Dose-dependent effect”.
